Experimental findings from patent US20100216772A1, “Novel Phenantridine Analogues and Uses Thereof” (priority 2004, published 2010) are described below.

Molecules are shown by their SMILES. pEC50: −log10 of the molar value.

The term pEC50 denotes the EC50 on a negative log10 scale, so that one unit is a factor of ten. A lower pEC50 goes with a high EC50. For orientation: inhibition means the share of the control response that was lost under treatment.

The test system of assay [1] is Peripheral blood mononuclear cells (PBMCs). Nature of the assay: Influence of compounds on T cell proliferation ([3H]-Thymidin, anti-CD3-stimulated PBMCs). The assay is classed as cell-based. The settings on record: PBMC, three different human donors. The text has this:
Peripheral blood mononuclear cells (PBMCs) were isolated from peripheral blood by Ficoll gradient centrifugation. […] Subsequently, the cells were washed three times with PBS and were resuspended in 96-well plates in a concentration of 2×10^5 cells/well. […] As positive and negative controls, PBMCs, stimulated with soluble anti-CD3-antibody, and non-stimulated PBMCs plus 0,1% DMSO were used. The addition of 0,1% DMSO had no effect on the proliferation rate. […] The cells were harvested using a Mikro 96 Harvester (Skatron Instruments, Lier, Norwegen). The cpm-values indicative for proliferation were determined using a Packard Matrix 9600 Counter (Canberra Packard, Schwadorf, Österreich). The experiments were made with three different human donors.
In order to determine the EC50 of test compounds, the value of anti-CD3-stimulated cells plus 0,1% DMSO was set as 100%. All other values were divided by the 100% value in order to obtain a relative percentage of inhibition. The obtained percentage values were used to determine the EC50 values using Sigma Plot.

For assay [2], the system named is HaCaT keratinocytes. Nature of the assay: Influence of compounds on keratinocyte proliferation (Cell Titer Viability Assay). In kind it is cell-based. The settings on record: Homo sapiens, 25 μM test compound, 48 hrs, compared to control experiments. The method, then:
5×10^3 HaCaT keratinocytes were seeded into 60 wells of 96 well plates in 200 μl KBM/10% FCS and incubated for 24 hrs at 37° C. The test compounds were dissolved at 100 mM in DMSO. The test items were then diluted to a concentration of 25 μM in KBM/FCS with a final concentration of 1% DMSO. The test compounds, as well as the negative control for unstimulated cells (KBM/1% DMSO) and stimulated cells (KBM/FCS/1% DMSO), were added to the HaCaTs in triplicates and incubated for 48 hrs. At the end of the incubation period, the media was removed and cell numbers were determined with Cell Titer Viability Assay from Promega (#G7571/G7572) according to the manufacturer's instructions.

`Cc1ccc(S(=O)(=O)N2c3ccccc3-c3ccccc3C2c2ccc3c(c2)OCO3)cc1` (centres unmarked) [Example 76, 6-Benzo[1,3]dioxol-5-yl-5-(toluene-4-sulfonyl)-5,6-dihydro-phenanthridine] showed a pEC50 in assay [1] of more than 4.60.

In assay [1], `Cc1ccc(C(=O)n2c(=O)c3ccccc3c3ccccc32)cc1` [Example 77, 5-(4-Methyl-benzoyl)-5H-phenanthridin-6-one] had a pEC50 of more than 4.60.

In assay [1], `CC(=O)N1c2ccccc2-c2ccccc2C1c1c[nH]c2ccccc12` (centres unmarked) [Example 3, 1-[6-(1H-Indol-3-yl)-6H-phenanthridin-5-yl]-ethanone] had a pEC50 of more than 4.60. The molecule further registered an inhibition at 25 µM in assay [2] of more than 50%.

`CN(C)c1ccc(C(=O)N2c3ccccc3-c3ccccc3C2c2c[nH]c3ccccc23)cc1` (centres unmarked) [Example 6, (4-Dimethylamino-phenyl)-[6-(1H-indol-3-yl)-6H-phenanthridin-5-yl]-methanone]: the inhibition at 25 µM in assay [2] was more than 50%.

`O=C1CN(S(=O)(=O)c2ccc(Br)cc2)c2ccccc2-c2ccccc21` [Example 82, 5-(4-Bromo-benzenesulfonyl)-5,6-dihydro-dibenzo[b,d]azepin-7-one]: in assay [1], the pEC50 is more than 4.60.

Consider `O=C(c1cccnc1Cl)N1c2ccccc2-c2ccccc2C1c1c[nH]c2ccccc12` (centres unmarked) [Example 21, (2-Chloro-pyridin-3-yl)-[6-(1H-indol-3-yl)-6H-phenanthridin-5-yl]-methanone], for which the pEC50 in assay [1] was more than 4.60. In assay [2], the inhibition at 25 µM is more than 50%.

`O=C(c1cc(C(F)(F)F)cc(C(F)(F)F)c1)N1c2ccccc2-c2ccccc2C1c1c[nH]c2ccccc12` (centres unmarked) [Example 17, (3,5-Bis-trifluoromethyl-phenyl)-[6-(1H-indol-3-yl)-6H-phenanthridin-5-yl]-methanone]: the inhibition at 25 µM in assay [2] is more than 50%.

In assay [1], `O=C(c1ccco1)N1c2ccccc2-c2ccccc2C1c1c[nH]c2ccccc12` (centres unmarked) [Example 23, Furan-2-yl-[6-(1H-indol-3-yl)-6H-phenanthridin-5-yl]-methanone] gave a pEC50 of more than 4.60. The inhibition at 25 µM in assay [2] was more than 50%.

As to `O=C1CN(S(=O)(=O)c2ccccc2)c2ccccc2-c2ccccc21` [Example 79, 5-Benzenesulfonyl-5,6-dihydro-dibenzo[b,d]azepin-7-one], the pEC50 in assay [1] was more than 4.60.

Molecule `O=C(c1cccc(C(F)(F)F)c1)N1c2ccccc2-c2ccccc2C1c1c[nH]c2ccccc12` (centres unmarked) [Example 14, [6-(1H-Indol-3-yl)-6H-phenanthridin-5-yl]-(3-trifluoromethyl-phenyl)-methanone] yielded an inhibition at 25 µM in assay [2] of more than 50%.

Regarding `Cc1ccc(S(=O)(=O)N2CC(=O)c3ccccc3-c3ccccc32)cc1` [Example 78, 5-(Toluene-4-sulfonyl)-5,6-dihydro-dibenzo[b,d]azepin-7-one], the pEC50 in assay [1] is more than 4.60. Further, the inhibition at 25 µM in assay [2] is more than 50%.

`O=C1CN(S(=O)(=O)c2ccc([N+](=O)[O-])cc2)c2ccccc2-c2ccccc21` [Example 83, 5-(4-Nitro-benzenesulfonyl)-5,6-dihydro-dibenzo[b,d]azepin-7-one]: the negative-log EC50 (pEC50) in assay [1] was more than 4.60.

For the molecule `O=C(c1cccc(F)c1)N1c2ccccc2-c2ccccc2C1c1c[nH]c2ccccc12` (centres unmarked) [Example 12, (3-Fluoro-phenyl)-[6-(1H-indol-3-yl)-6H-phenanthridin-5-yl]-methanone], in assay [1], the pEC50 is more than 4.60. For the same molecule, in assay [2], the inhibition at 25 µM was more than 50%.

The molecule `CC(=O)Nc1ccc(S(=O)(=O)N2CC(=O)c3ccccc3-c3ccccc32)cc1` [Example 81, N-[4-(7-Oxo-6,7-dihydro-dibenzo[b,d]azepine-5-sulfonyl)-phenyl]-acetamide] showed a pEC50 in assay [1] of more than 4.60.

For `CC(C)C(=O)N1c2ccccc2-c2ccccc2C1c1c[nH]c2ccccc12` (centres unmarked) [Example 26, 1-[6-(1H-Indol-3-yl)-6H-phenanthridin-5-yl]-2-methyl-propan-1-one], in assay [1], the pEC50 was more than 4.60. The inhibition at 25 µM in assay [2] is more than 50%.

On to `O=C(c1ccc(Cl)nc1)N1c2ccccc2-c2ccccc2C1c1c[nH]c2ccccc12` (centres unmarked) [Example 20, (6-Chloro-pyridin-3-yl)-[6-(1H-indol-3-yl)-6H-phenanthridin-5-yl]-methanone], for which the inhibition at 25 µM in assay [2] is more than 50%.

In assay [1], `O=C1CN(S(=O)(=O)c2cc(C(F)(F)F)cc(C(F)(F)F)c2)c2ccccc2-c2ccccc21` [Example 84, 5-(3,5-Bis-trifluoromethyl-benzenesulfonyl)-5,6-dihydro-dibenzo[b,d]azepin-7-one] had a pEC50 of more than 4.60.

`CCCC(C)C(=O)N1c2ccccc2-c2ccccc2C1c1c[nH]c2ccccc12` (centres unmarked) [Example 28, 1-[6-(1H-Indol-3-yl)-6H-phenanthridin-5-yl]-2-methyl-pentan-1-one] had a pEC50 in assay [1] of more than 4.60. In addition, the inhibition at 25 µM in assay [2] was more than 50%.

`O=C(CCC1CCCCC1)N1c2ccccc2-c2ccccc2C1c1c[nH]c2ccccc12` (centres unmarked) [Example 34, 3-Cyclohexyl-1-[6-(1H-indol-3-yl)-6H-phenanthridin-5-yl]-propan-1-one] yielded an inhibition at 25 µM in assay [2] of more than 50%.

In assay [2], `O=C(C1CCC1)N1c2ccccc2-c2ccccc2C1c1c[nH]c2ccccc12` (centres unmarked) [Example 30, Cyclobutyl-[6-(1H-indol-3-yl)-6H-phenanthridin-5-yl]-methanone] had an inhibition at 25 µM of more than 50%.

As to `O=C(CCc1ccccc1)N1c2ccccc2-c2ccccc2C1c1c[nH]c2ccccc12` (centres unmarked) [Example 35, 1-[6-(1H-Indol-3-yl)-6H-phenanthridin-5-yl]-3-phenyl-propan-1-one], the inhibition at 25 µM in assay [2] was more than 50%.

On to `O=C(c1ccc(C(F)(F)F)cc1)N1c2ccccc2-c2ccccc2C1c1c[nH]c2ccccc12` (centres unmarked) [Example 7, [6-(1H-Indol-3-yl)-6H-phenanthridin-5-yl]-(4-trifluoromethyl-phenyl)-methanone], for which the inhibition at 25 µM in assay [2] was more than 50%.

The molecule `O=C1CN(S(=O)(=O)c2cccs2)c2ccccc2-c2ccccc21` [Example 86, 5-(Thiophene-2-sulfonyl)-5,6-dihydro-dibenzo[b,d]azepin-7-one] gave a pEC50 in assay [1] of more than 4.60.

`O=C(c1ccccc1)N1c2ccccc2-c2ccccc2C1c1c[nH]c2ccccc12` (centres unmarked) [Example 4, [6-(1H-Indol-3-yl)-6H-phenanthridin-5-yl]-phenylmethanone] displayed an inhibition at 25 µM in assay [2] of more than 50%.

In assay [2], `COC(=O)N1c2ccccc2-c2ccccc2C1c1c[nH]c2ccccc12` (centres unmarked) [Example 36, 6-(1H-Indol-3-yl)-6H-phenanthridine-5-carboxylic acid methyl ester] showed an inhibition at 25 µM of more than 50%.
